Read-outs that look alike come from different tables or passages of the source.
How the values were obtained:
α4β1 [1] = target: T1, α4β1 (Homo sapiens, UniProt P05556+P13612); assay: Equilibrium binding on Jurkat cells, competition with 35S-B as reporter
Experimental: The α4β1-expressing Jurkat human T-cell line (a gift from S. Burakoff, Dana Farber Cancer Institute, Boston, Mass.), and the α4β7-expressing human B-cell line, JY (American Type Tissue Collection, Rockville, Md.) were maintained in culture at 37° C. in RPMI-1640 medium supplemented with 10% fetal bovine serum (FBS). K562 cell lines transfected with either the human α1-integrin chain (Phil Gotwells, Biogen, Inc) or with the human α2 integrin chain (a gift from M. Hemler, Dana Farber Cancer Institute, Boston, Mass.) were maintained in RPMI-1640 medium supplemented with 10% FBS and 1 mg/mL G418. All cells were periodically monitored for high integrin surface expression by FACS analysis. The binding of the various inhibitors to α4β1 were assessed on Jurkat cells by competition using radioactive ^35S-B as a reporter for a 1 occupancy. Jurkat cells were pelleted by centrifugation, washed two times with TBS (50 mM Tris HCl, 150 mM NaCl, 0.1% bovine serum albumin, 2 mM glucose, 10 mM HEPES pH 7.4), suspended at approximately 2×10^6 cells/mL in TBS, and counted using a Neubauer hemocytometer. The cells were further diluted 2×10^6 cells/mL with TBS containing 1 mM CaCl2 and 1 mM MgCl2 and treated with serial dilutions of test compound for 1 hour, and then 5 nM ^35S-B, an amount sufficient to bind all unoccupied receptors, was added for 10 minutes before measuring the bound counts. The cells were then pelleted by centrifugation, resuspended in 100 μL of TBS plus Mn^2+, and transferred to a scintillation vial containing 2.9 mL of ScintiVerse II (Fisher Scientific). Cell-associated radioactivity was quantified by scintillation counting. All studies were performed in siliconized 1.5 mL eppendorf tubes with a standard 1 mL sample volume. Each condition was tested in at least two independent studies. Non-specific binding of ^35S-B to cells was assessed at each cell density and ^35S-B concentration in TBS but in the absence of added metal ion. Specific counts bound were calculated by subtracting non specific counts from total counts bound. Counts bound under these conditions measures integrin that is not occupied by the test compound and is therefore free to bind the ^35S-B. The competition format was also used for kinetic binding studies. Binding and dissociation constants were calculated from α4β1 that remained free to bind the ^35S-B after treatment with test compound.
The affinities of the PEGylated inhibitors for α4β1 were calculated from association and disassociation rate constants using a kinetic analysis. For these studies, Jurkat cells expressing α4β1 (75,000 copies/cell) were treated with the inhibitors and then ^35S-B was added as a probe to detect free α4β1. The levels of bound inhibitor were calculated from a measure of total ^35S-B bound in the absence of added inhibitor and counts bound following inhibitor treatment. […] IC50 values were calculated from equilibrium binding studies on Jurkat cells through competition using ^35S-B as a reporter in buffer containing 1 mM Ca^2+ and 1 mM Mg^2+.
Second, the effect of protein binding on the affinity of the PEGylated inhibitors for α4β1 on Jurkat cells was evaluated from equilibrium binding measurements.

α4β1 [2] = target: T1, α4β1; assay: Kinetic binding to α4β1 on Jurkat cells, competition with 35S-B as probe for free α4β1; parameters: endogenous in cells; host or cells: Jurkat human T-cell line; conditions: for Kd: calculated from on- and off-rate constants; for koff: read-out: koff/10^−4; for kon: read-out: kon/10^6
Experimental: All cells were periodically monitored for high integrin surface expression by FACS analysis. The binding of the various inhibitors to α4β1 were assessed on Jurkat cells by competition using radioactive ^35S-B as a reporter for a 1 occupancy. Jurkat cells were pelleted by centrifugation, washed two times with TBS (50 mM Tris HCl, 150 mM NaCl, 0.1% bovine serum albumin, 2 mM glucose, 10 mM HEPES pH 7.4), suspended at approximately 2×10^6 cells/mL in TBS, and counted using a Neubauer hemocytometer. The cells were further diluted 2×10^6 cells/mL with TBS containing 1 mM CaCl2 and 1 mM MgCl2 and treated with serial dilutions of test compound for 1 hour, and then 5 nM ^35S-B, an amount sufficient to bind all unoccupied receptors, was added for 10 minutes before measuring the bound counts. The cells were then pelleted by centrifugation, resuspended in 100 μL of TBS plus Mn^2+, and transferred to a scintillation vial containing 2.9 mL of ScintiVerse II (Fisher Scientific). Cell-associated radioactivity was quantified by scintillation counting. All studies were performed in siliconized 1.5 mL eppendorf tubes with a standard 1 mL sample volume. Each condition was tested in at least two independent studies. Non-specific binding of ^35S-B to cells was assessed at each cell density and ^35S-B concentration in TBS but in the absence of added metal ion. Specific counts bound were calculated by subtracting non specific counts from total counts bound. Counts bound under these conditions measures integrin that is not occupied by the test compound and is therefore free to bind the ^35S-B. The competition format was also used for kinetic binding studies. Binding and dissociation constants were calculated from α4β1 that remained free to bind the ^35S-B after treatment with test compound.
The affinities of the PEGylated inhibitors for α4β1 were calculated from association and disassociation rate constants using a kinetic analysis. For these studies, Jurkat cells expressing α4β1 (75,000 copies/cell) were treated with the inhibitors and then ^35S-B was added as a probe to detect free α4β1. The levels of bound inhibitor were calculated from a measure of total ^35S-B bound in the absence of added inhibitor and counts bound following inhibitor treatment.

α4β1 [3] = target: T1, α4β1; assay: VCAM-Ig direct binding assay (DBA), Jurkat cells
Text: A direct binding assay may also be employed to quantitate the inhibitory activity of the compounds. In this assay, a VCAM-IgG fusion protein containing the first two immunoglobulin domains of VCAM (D1D2) attached above the hinge region of an IgG1 molecule (“VCAM 2D-IgG”), is conjugated to a marker enzyme, such as alkaline phosphatase (“AP”). […] The conjugation of that fusion to a marker enzyme is achieved by cross-linking methods well-known in the art.
The VCAM-IgG enzyme conjugate is then placed in the wells of a multi-well filtration plate, such as that contained in the Millipore Multiscreen Assay System (Millipore Corp., Bedford, Mass.). Varying concentrations of the test inhibitory compound are then added to the wells followed by addition of VLA-4-expressing cells. The cells, compound and VCAM-IgG enzyme conjugate are mixed together and allowed to incubate at room temperature. Following incubation, the wells are vacuum drained, leaving behind the cells and any bound VCAM. Quantitation of bound VCAM is determined by adding an appropriate calorimetric substrate for the enzyme conjugated to VCAM-IgG and determining the amount of reaction product. Decreased reaction product indicates increased binding inhibitory activity.
Samples were also evaluated for function using the VCAM-Ig direct binding assay. Details for the construction of the VCAM-Ig animal cell expression vector, the generation of a Chinese hamster ovary (CHO) cell line expressing VCAM-Ig, conjugation of the VCAM-Ig to alkaline phosphatase, and the development of a direct binding assay for characterizing α4β1 and α4β7 binding to VCAM-Ig were as previously described (see Lobb, R. R., et al. (1995) Cell Adhes. Commun. 3:385–397).
For these studies, a series of compounds based on compound E containing 0.35, 2, 5, 20, 30, and 50 kDa-mPEG was synthesized and tested for binding to α4β1 on Jurkat cells with VCAM-Ig as a reporter (see methods).

[4] = IC50, buffer with 1 mM Ca2+ and 1 mM Mg2+, no plasma

T1 sequence (P13612 34-1032): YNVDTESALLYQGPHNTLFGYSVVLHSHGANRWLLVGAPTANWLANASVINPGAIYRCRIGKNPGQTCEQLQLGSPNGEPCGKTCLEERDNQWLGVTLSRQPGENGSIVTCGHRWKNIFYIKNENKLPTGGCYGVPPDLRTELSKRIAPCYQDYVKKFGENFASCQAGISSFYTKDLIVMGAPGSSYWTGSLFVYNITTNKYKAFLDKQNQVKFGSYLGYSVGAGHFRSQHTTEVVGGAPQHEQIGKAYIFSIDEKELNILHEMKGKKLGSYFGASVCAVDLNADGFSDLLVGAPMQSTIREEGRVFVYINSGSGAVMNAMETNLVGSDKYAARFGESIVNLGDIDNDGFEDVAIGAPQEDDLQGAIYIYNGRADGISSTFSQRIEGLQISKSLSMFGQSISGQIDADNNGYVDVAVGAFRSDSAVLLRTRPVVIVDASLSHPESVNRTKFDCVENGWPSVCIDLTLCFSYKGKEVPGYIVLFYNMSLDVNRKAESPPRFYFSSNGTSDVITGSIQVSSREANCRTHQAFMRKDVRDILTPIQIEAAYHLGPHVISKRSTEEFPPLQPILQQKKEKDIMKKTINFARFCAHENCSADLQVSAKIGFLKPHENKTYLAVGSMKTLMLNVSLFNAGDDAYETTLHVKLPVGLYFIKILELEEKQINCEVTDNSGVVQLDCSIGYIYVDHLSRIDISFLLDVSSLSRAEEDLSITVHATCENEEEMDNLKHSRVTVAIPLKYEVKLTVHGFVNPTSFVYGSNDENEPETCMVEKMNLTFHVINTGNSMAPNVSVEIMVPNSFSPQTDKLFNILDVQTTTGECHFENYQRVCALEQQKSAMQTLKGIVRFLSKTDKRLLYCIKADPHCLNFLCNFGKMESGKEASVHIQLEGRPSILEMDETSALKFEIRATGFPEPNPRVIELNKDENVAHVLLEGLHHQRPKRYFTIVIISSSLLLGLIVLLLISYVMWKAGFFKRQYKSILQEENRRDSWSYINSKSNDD
T1 sequence (P05556 21-798): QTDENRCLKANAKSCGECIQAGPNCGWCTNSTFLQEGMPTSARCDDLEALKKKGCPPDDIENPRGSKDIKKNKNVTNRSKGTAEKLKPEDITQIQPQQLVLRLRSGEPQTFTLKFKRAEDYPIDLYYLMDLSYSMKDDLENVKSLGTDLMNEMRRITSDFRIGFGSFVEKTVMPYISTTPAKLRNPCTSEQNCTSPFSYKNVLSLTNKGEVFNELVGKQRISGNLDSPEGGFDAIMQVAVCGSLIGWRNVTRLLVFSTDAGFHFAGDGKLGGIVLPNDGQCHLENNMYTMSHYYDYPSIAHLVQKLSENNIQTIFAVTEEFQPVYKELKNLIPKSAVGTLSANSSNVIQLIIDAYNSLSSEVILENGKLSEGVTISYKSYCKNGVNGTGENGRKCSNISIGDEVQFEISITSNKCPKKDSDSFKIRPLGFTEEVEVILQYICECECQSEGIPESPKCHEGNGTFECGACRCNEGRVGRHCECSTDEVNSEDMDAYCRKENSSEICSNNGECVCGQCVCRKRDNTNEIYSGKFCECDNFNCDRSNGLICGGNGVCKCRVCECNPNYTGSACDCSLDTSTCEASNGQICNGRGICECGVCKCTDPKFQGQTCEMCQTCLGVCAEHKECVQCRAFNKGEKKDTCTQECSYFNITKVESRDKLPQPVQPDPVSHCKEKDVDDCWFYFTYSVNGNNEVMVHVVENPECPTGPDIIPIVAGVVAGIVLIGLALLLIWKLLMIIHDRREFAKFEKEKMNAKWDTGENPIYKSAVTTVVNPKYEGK

Row | Compound | IC50 (α4β1 [1]; IC50(HP), 100% human plasma) [nM] | IC50 (α4β1 [1]; [4]) [nM] | Kd (α4β1 [2]; Jurkat cells) [nM] | koff (α4β1 [2]) [s⁻¹] | kon (α4β1 [2]) [M⁻¹ s⁻¹] | DBA 100% rat plasma, % @ 50 nM (α4β1 [3]; 100% rat plasma, 50 nM) | IC50 (α4β1 [3]; read-out: DBA IC50 Ca2+Mg2+, Ca2+Mg2+) [nM] | IC50 (α4β1 [3]; read-out: DBA IC50 Mn2+, Mn2+) [nM] | % bound Ca2+Mg2+ 30 min (α4β1 [2]; Ca2+Mg2+, 30 min) [%] | % bound Mn2+ 60 min (α4β1 [2]; Mn2+, 60 min) [%] | koff (α4β1 [2]; Jurkat cells, 35S-B probe) [s⁻¹] | kon (α4β1 [2]; Jurkat cells, 35S-B probe) [M⁻¹ s⁻¹]
1 | Cc1ccccc1NC(=O)Nc1ccc(CC(=O)N(C)[C@@H](CCCCNC(=O)CCCCCN)C(=O)NCC[C@H](NC(=O)[C@@H]2CCCN2S(=O)(=O)c2ccccc2)C(=O)O)cc1 [Compound A, 4-[6-(6-Amino-hexanoylamino)-2(S)-(methyl-{2-[4-(3-o-tolyl-ureido)-phenyl]-acetyl}-amino)-hexanoylamino]-2(S)-[(1-benzenesulfonyl-pyrrolidine-2(S)-carbonyl)-amino]-butyric acid] | 2.1 | 0.35 | 0.25 | 0.00053 | 2e+06 | – | – | – | – | – | – | –
2 | Cc1ccccc1NC(=O)Nc1ccc(CC(=O)N(C)C(CC(C)C)C(=O)NCCC(NC(=O)[C@@H]2C[C@H](NC(=O)CCCCCN)CN2S(=O)(=O)c2ccccc2)C(=O)O)cc1 (relative stereo) [D] | 7.9 | 1.5 | 0.061 | 0.0002 | 3.3e+06 | – | – | – | – | – | – | –
3 | Cc1ccccc1NC(=O)Nc1ccc(CC(=O)N(C)C(CC(C)C)C(=O)NCCC(NC(=O)C2CC(NC(=O)CCCCCNC(=O)CCCCCCC(=O)NCCCCCC(=O)NC3CC(C(=O)NC(CCNC(=O)C(CC(C)C)N(C)C(=O)Cc4ccc(NC(=O)Nc5ccccc5C)cc4)C(=O)O)N(S(=O)(=O)c4ccccc4)C3)CN2S(=O)(=O)c2ccccc2)C(=O)O)cc1 (stereo not drawn) [Q] | – | – | – | – | – | (0% @ | 74 | 4.3 | 0.1 | 93 | – | –
4 | Cc1ccccc1NC(=O)Nc1ccc(CC(=O)N(C)[C@@H](CC(C)C)C(=O)NCC[C@H](NC(=O)[C@@H]2C[C@@H](N)CN2S(=O)(=O)c2ccccc2)C(=O)O)cc1 [C] | 2.1 | 1.2 | 0.04 | – | – | – | – | – | – | – | 0.00012 | 3e+06
5 | Cc1ccccc1NC(=O)Nc1ccc(CC(=O)N(C)C(CC(C)C)C(=O)NCCC(NC(=O)[C@@H]2C[C@@H](NC(=O)CCCCCN)CN2S(=O)(=O)c2ccccc2)C(=O)O)cc1 (relative stereo) [E] | 2.3 | 1.4 | 0.044 | 0.00011 | 2.5e+06 | – | – | – | – | – | – | –
6 | Cc1ccccc1NC(=O)Nc1ccc(CC(=O)N(C)[C@@H](CC(C)C)C(=O)NCC[C@H](NC(=O)[C@@H]2C[C@H](N)CN2S(=O)(=O)c2ccccc2)C(=O)O)cc1 [F] | 8.7 | 3.5 | 0.07 | – | – | – | – | – | – | – | 0.00024 | 3.4e+06
